PubChem BioAssay AID1963867 (Molecular Pharmacology Branch, DTP, NCI, 2024)

Tested on: KRAS-mutant PDC tumor spheroid with HUVEC/MSC, viability
Test: Anticancer human tumor 327498-153-R-J2-PDC patient-derived uterine carcinosarcoma cell line growth inhibition [KRAS2]
Conditions: for viability, T/C: stronger effect = lower value; active = viability on the fitted dose curve at most 10% of control; inactive = the rest
Summary of the method: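 KRAS-mutant tumor cells were grown as spheroids with HUVEC endothelial cells and human MSCs as stroma. Targeted agents were tested alone and with KRAS pathway inhibitors. Doses started at or near clinical Cmax, or 10 microM, descending half-log.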

[1] = curve of first compound, second compound 0.1 µM
[2] = curve of first compound, second compound 0.316 µM
[3] = curve of first compound, second compound 1 µM
[4] = curve of first compound, second compound 3.16 µM
[5] = curve of first compound, second compound 10 µM
[6] = second compound 0.1 µM, first compound 0.0316 µM
[7] = second compound 0.1 µM, first compound 0.1 µM
[8] = second compound 0.1 µM, first compound 0.316 µM
[9] = second compound 0.1 µM, first compound 1 µM
[10] = second compound 0.1 µM, first compound 3.16 µM
[11] = second compound 0.1 µM, first compound 10 µM
[12] = second compound 0.316 µM, first compound 0.0316 µM
[13] = second compound 0.316 µM, first compound 0.1 µM
[14] = second compound 0.316 µM, first compound 0.316 µM
[15] = second compound 0.316 µM, first compound 1 µM
[16] = second compound 0.316 µM, first compound 3.16 µM
[17] = second compound 0.316 µM, first compound 10 µM
[18] = second compound 1 µM, first compound 0.0316 µM
[19] = second compound 1 µM, first compound 0.1 µM
[20] = second compound 1 µM, first compound 0.316 µM
[21] = second compound 1 µM, first compound 1 µM
[22] = second compound 1 µM, first compound 3.16 µM
[23] = second compound 1 µM, first compound 10 µM
[24] = second compound 3.16 µM, first compound 0.0316 µM
[25] = second compound 3.16 µM, first compound 0.1 µM
[26] = second compound 3.16 µM, first compound 0.316 µM
[27] = second compound 3.16 µM, first compound 1 µM
[28] = second compound 3.16 µM, first compound 3.16 µM
[29] = second compound 3.16 µM, first compound 10 µM
[30] = second compound 10 µM, first compound 0.0316 µM
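Also: spheroids exposed to agents for seven days before reading.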
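For viability, T/C in this document: 100% = DMSO vehicle wells so lower means fewer viable cells.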

COc1cc(Nc2ncc3c(n2)-c2ccc(Cl)cc2C(c2c(F)cccc2OC)=NC3)ccc1C(=O)O + C=CC(=O)N1CCN(c2nc(=O)n(-c3c(C)ccnc3C(C)C)c3nc(-c4c(O)cccc4F)c(F)cc23)C(C)C1
< 31.6 nM: IC50 [1] | IC50 [2] | IC50 [3] | IC50 [4] | IC50 [5]
inactive: viability, T/C [6] 12.1% | viability, T/C [7] 9.76% | viability, T/C [8] 10.6% | viability, T/C [9] 12.4% | viability, T/C [10] 12.6% | viability, T/C [11] 9.6% | viability, T/C [12] 10.1% | viability, T/C [13] 11.5% | viability, T/C [14] 11.1% | viability, T/C [15] 9.91% | viability, T/C [16] 13.6% | viability, T/C [17] 10.8% | viability, T/C [18] 10.6% | viability, T/C [19] 12% | viability, T/C [20] 10.6% | viability, T/C [21] 10.7% | viability, T/C [22] 12.5% | viability, T/C [23] 11.3% | viability, T/C [24] 9.6% | viability, T/C [25] 11.2% | viability, T/C [26] 10.2% | viability, T/C [27] 11.9% | viability, T/C [28] 12.6% | viability, T/C [29] 10.9% | viability, T/C [30] 9.5% | viability, T/C (second compound 10 µM, first compound 0.1 µM) 13.1% | viability, T/C (second compound 10 µM, first compound 0.316 µM) 12.6% | viability, T/C (second compound 10 µM, first compound 1 µM) 12.4% | viability, T/C (second compound 10 µM, first compound 3.16 µM) 15.2% | viability, T/C (second compound 10 µM, first compound 10 µM) 11.9%

CC1(C)CCC(CN2CCN(c3ccc(C(=O)NS(=O)(=O)c4ccc(NCC5CCOCC5)c([N+](=O)[O-])c4)c(Oc4cnc5[nH]ccc5c4)c3)CC2)=C(c2ccc(Cl)cc2)C1
inactive: viability, T/C (compound 0.0316 µM) 101% [middle of 5 runs] | viability, T/C (compound 0.1 µM) 98.9% [middle of 5 runs] | viability, T/C (compound 0.316 µM) 99.3% [middle of 5 runs] | viability, T/C (compound 1 µM) 97.8% [middle of 5 runs] | viability, T/C (compound 3.16 µM) 74.3% [middle of 5 runs]
4.81 µM [middle of 5 runs]: IC50 (curve of compound)
15.3% [middle of 5 runs]: viability, T/C (compound 10 µM)

CC(=O)Nc1cccc(-n2c(=O)n(C3CC3)c(=O)c3c(Nc4ccc(I)cc4F)n(C)c(=O)c(C)c32)c1 + CC1OCC2(CCN(c3cnc(Sc4ccnc(N)c4Cl)c(N)n3)CC2)C1N
1.66 nM: IC50 [1]
< 0.1 nM: IC50 [3] | IC50 [4] | IC50 [5]
0.493 nM: IC50 [2]
inactive: viability, T/C (second compound 0.1 µM, first compound 0.0001 µM) 75.2% | viability, T/C (second compound 0.1 µM, first compound 0.000316 µM) 58.4% | viability, T/C (second compound 0.1 µM, first compound 0.001 µM) 50.2% | viability, T/C (second compound 0.1 µM, first compound 0.00316 µM) 46.5% | viability, T/C (second compound 0.1 µM, first compound 0.01 µM) 44.7% | viability, T/C [6] 26.3% | viability, T/C (second compound 0.316 µM, first compound 0.0001 µM) 52.7% | viability, T/C (second compound 0.316 µM, first compound 0.000316 µM) 52.4% | viability, T/C (second compound 0.316 µM, first compound 0.001 µM) 48.2% | viability, T/C (second compound 0.316 µM, first compound 0.00316 µM) 40.8% | viability, T/C (second compound 0.316 µM, first compound 0.01 µM) 35% | viability, T/C [12] 22.8% | viability, T/C (second compound 1 µM, first compound 0.0001 µM) 41% | viability, T/C (second compound 1 µM, first compound 0.000316 µM) 35.2% | viability, T/C (second compound 1 µM, first compound 0.001 µM) 34.9% | viability, T/C (second compound 1 µM, first compound 0.00316 µM) 29.7% | viability, T/C (second compound 1 µM, first compound 0.01 µM) 26.8% | viability, T/C [18] 16.1% | viability, T/C (second compound 3.16 µM, first compound 0.0001 µM) 31.1% | viability, T/C (second compound 3.16 µM, first compound 0.000316 µM) 26.9% | viability, T/C (second compound 3.16 µM, first compound 0.001 µM) 22.1% | viability, T/C (second compound 3.16 µM, first compound 0.00316 µM) 22.1% | viability, T/C (second compound 3.16 µM, first compound 0.01 µM) 17.2% | viability, T/C [24] 13.1% | viability, T/C (second compound 10 µM, first compound 0.0001 µM) 22.8% | viability, T/C (second compound 10 µM, first compound 0.000316 µM) 21.3% | viability, T/C (second compound 10 µM, first compound 0.001 µM) 21.6% | viability, T/C (second compound 10 µM, first compound 0.00316 µM) 15.8% | viability, T/C (second compound 10 µM, first compound 0.01 µM) 13.9% | viability, T/C [30] 11.3%

O=C(c1cc(Cc2n[nH]c(=O)c3ccccc23)ccc1F)N1CCN(C(=O)C2CC2)CC1 + C=CC(=O)N1CCN(c2nc(OCC3CCCN3C)nc3c2CCN(c2cccc4cccc(C)c24)C3)CC1CC#N
< 31.6 nM: IC50 [4]
inactive: viability, T/C (second compound 0.0316 µM, first compound 0.0316 µM) 64.1% | viability, T/C (second compound 0.0316 µM, first compound 0.1 µM) 74.5% | viability, T/C (second compound 0.0316 µM, first compound 0.316 µM) 104% | viability, T/C (second compound 0.0316 µM, first compound 1 µM) 50.3% | viability, T/C (second compound 0.0316 µM, first compound 3.16 µM) 26.2% | viability, T/C (second compound 0.0316 µM, first compound 10 µM) 16.8% | viability, T/C [6] 61.5% | viability, T/C [7] 58.4% | viability, T/C [8] 56.4% | viability, T/C [9] 47.5% | viability, T/C [10] 25.6% | viability, T/C [11] 15.7% | viability, T/C [12] 58.8% | viability, T/C [13] 56.6% | viability, T/C [14] 51.2% | viability, T/C [15] 44.2% | viability, T/C [16] 20.2% | viability, T/C [17] 14.4% | viability, T/C [18] 47.8% | viability, T/C [19] 56.3% | viability, T/C [20] 47.1% | viability, T/C [21] 38.8% | viability, T/C [22] 19.2% | viability, T/C [23] 13.8%
1010 nM: IC50 (curve of first compound, second compound 0.0316 µM)
711 nM: IC50 [1]
active: viability, T/C [24] 2.26% | viability, T/C [25] 2.16% | viability, T/C [26] 2.51% | viability, T/C [27] 2.55% | viability, T/C [28] 3.25% | viability, T/C [29] 0.24%
490 nM: IC50 [2]
195 nM: IC50 [3]
